This note sets out measurements from ChEMBL document CHEMBL1201862, “PubChem BioAssay data set” (2004).

Activity calls are given as the source filed them. Where only a bound is given, the exact number is not on record here.

Assay [1] in a line: cells. It is filed as functional, cell-based.
A short description of assay [2]: cells. It is filed as functional, cell-based. The source holds these as a separate data set.
In assay [3] the target is Fructose-bisphosphate aldolase (Mycobacterium tuberculosis, UniProt P9WQA3). The assay is described as follows: Fluorescence-based biochemical high throughput dose response assay for inhibitors of the fructose-bisphosphate aldolase (FBA) of M. tuberculosis. It is filed as functional.
Sequence of Fructose-bisphosphate aldolase (P9WQA3 whole entry): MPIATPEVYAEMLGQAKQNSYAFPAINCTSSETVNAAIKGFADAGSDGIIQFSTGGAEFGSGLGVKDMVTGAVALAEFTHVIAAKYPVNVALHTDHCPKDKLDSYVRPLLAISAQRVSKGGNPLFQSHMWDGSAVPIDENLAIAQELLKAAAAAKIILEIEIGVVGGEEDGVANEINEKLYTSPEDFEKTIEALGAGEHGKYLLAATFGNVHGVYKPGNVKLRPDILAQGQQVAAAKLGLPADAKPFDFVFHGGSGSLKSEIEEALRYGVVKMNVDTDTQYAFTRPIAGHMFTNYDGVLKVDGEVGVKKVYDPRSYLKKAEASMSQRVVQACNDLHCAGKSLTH
Assay [4] concerns the target 5-hydroxytryptamine receptor 2A (Mus musculus, UniProt P35363). It is filed as functional, cell-based.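 Also: CHO-K1 cells with tagged receptor and beta-arrestin; agonist potency measured as compound-induced activation of the receptor.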
Assay [5] concerns the target Mu-type opioid receptor (Homo sapiens, UniProt P35372). It is filed as functional, cell-based.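 Also: U2OS cells with beta-arrestin recruitment to OPRM1 by beta-gal complementation.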
A short description of assay [6]: ARNT/TACC3 interaction disruptors, potency, confirmation, biochemical, AlphaScreen, cherry-picked samples (AID 651703).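 Also: His-tagged ARNT PAS-B domain paired with GST-TACC3 E629A dimer coactivator fragment; potency of inhibitors that break up the complex and lower AlphaScreen signal.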 It is filed as functional, Homo sapiens. Background: In Alpha technology, singlet oxygen from a donor bead excites a nearby acceptor bead.
The nature of assay [7]: AlphaScreen signal interference compounds, dose response, artefact control for ARNT-TACC3 interaction inhibitor project, biochemical, luminescence, cherry-pick (AID 651705).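 Also: AlphaScreen bead proximity signal that flags compounds interfering with the detection technology; potency reflects signal decrease which marks the compound as an assay artifact.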 It is filed as functional.
Assay [8] deals with Steroidogenic factor 1 (Homo sapiens, UniProt Q13285). The assay is described as follows: Counterscreen for inverse agonists of the liver receptor homolog-1 (LRH-1; NR5A2): Luminescence-based cell-based high throughput dose response assay to identify inverse agonists of the Steroidogenic Factor 1 Nuclear Receptor (SF1; NR5A1). It is filed as functional. Background: Counterscreens check selectivity or assay interference.
Sequence of Steroidogenic factor 1 (Q13285 whole entry): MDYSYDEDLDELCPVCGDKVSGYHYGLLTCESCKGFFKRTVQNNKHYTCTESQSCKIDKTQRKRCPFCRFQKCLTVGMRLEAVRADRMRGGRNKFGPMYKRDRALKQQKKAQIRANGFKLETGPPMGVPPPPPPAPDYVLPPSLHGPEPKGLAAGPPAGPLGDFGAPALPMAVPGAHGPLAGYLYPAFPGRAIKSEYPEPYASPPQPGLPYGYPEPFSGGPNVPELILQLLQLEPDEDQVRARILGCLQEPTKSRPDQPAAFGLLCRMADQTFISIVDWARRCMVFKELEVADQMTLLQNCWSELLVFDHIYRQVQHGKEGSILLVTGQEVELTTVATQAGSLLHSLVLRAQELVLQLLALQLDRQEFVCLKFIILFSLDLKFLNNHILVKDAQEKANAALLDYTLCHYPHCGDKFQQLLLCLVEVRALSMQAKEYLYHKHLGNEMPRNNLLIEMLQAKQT

Assay [9] addresses Nuclear receptor subfamily 5 group A member 2 (Homo sapiens, UniProt O00482). It is filed as functional, cell-based.
Assay [10] can be described thus: StAR promoter reporter inhibition counter-screen, dose response, counter-screen for LRH-1 inverse agonist project, cell-based, luminescence, luciferase reporter (AID 651969). It is filed as functional.
Assay [11] can be described thus: cells. It is filed as functional.
Assay [12] concerns the target T1, Streptokinase A (Streptococcus pyogenes serotype M1, UniProt P10520).
T1 sequence (P10520 whole entry): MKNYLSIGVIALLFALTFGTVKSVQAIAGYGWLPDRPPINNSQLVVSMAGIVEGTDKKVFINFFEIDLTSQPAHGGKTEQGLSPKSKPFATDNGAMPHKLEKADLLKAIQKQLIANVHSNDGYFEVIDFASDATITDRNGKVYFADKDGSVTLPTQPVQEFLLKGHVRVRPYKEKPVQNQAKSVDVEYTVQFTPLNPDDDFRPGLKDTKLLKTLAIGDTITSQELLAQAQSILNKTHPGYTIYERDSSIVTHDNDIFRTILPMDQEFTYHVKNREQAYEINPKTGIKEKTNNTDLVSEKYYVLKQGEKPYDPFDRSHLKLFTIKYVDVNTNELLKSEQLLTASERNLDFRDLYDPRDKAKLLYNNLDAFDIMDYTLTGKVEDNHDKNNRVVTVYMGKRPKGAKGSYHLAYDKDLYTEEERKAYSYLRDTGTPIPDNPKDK
The assay is described as follows: S. pyogenes streptokinase expression inhibitors, potency, dose response, plasminogen activation absorbance, OD405 (AID 1914).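 Also: secreted streptokinase activity via plasminogen activation per viability signal from cell pellet.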 It is filed as functional, Streptococcus pyogenes M1 GAS.

In assay [13] the test system is Streptococcus. As to the kind of experiment: Group A Streptococcus viability loss, dose response, counter-screen for streptokinase expression inhibitor project, luminescence, BacTiterGlo (AID 1915).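 Also: potency for reduction of bacterial viability or growth.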 It is filed as functional, organism-based.
The subject of assay [14] is Streptococcus sp. 'group A'. As to the kind of experiment: growth inhibition of control SK(-) GAS strain, dose response, counter-screen for streptokinase expression inhibitor project, luminescence, kanamycin, BacTiterGlo, confirmation (AID 1900). It is filed as functional, organism-based.
Assay [15] is described as follows: microbe, parasite or virus in culture. The note with it: Mycobacterium tuberculosis. It is filed as functional.
The subject of assay [16] is Vero. As to the kind of experiment: cells. It is filed as functional. The following applies: Chlorocebus sabaeus.
A short description of assay [17]: HEp-2 cell cytotoxicity, dose response, cytotoxicity control for RSV inhibitor project, HTS (AID 2410). The following applies: human respiratory syncytial virus. It is filed as functional.
Assay [18] concerns the target Long-chain-fatty-acid--AMP ligase FadD28 (Mycobacterium tuberculosis, UniProt P9WQ59). The assay is described as follows: Fluorescence polarization aasay to screen for inhibitors that compete for the binding of FadD28 to a bisubstrate Measured in Biochemical System Using Plate Reader - 2147-01_Inhibitor_Dose_CherryPick_Activity. It is filed as functional, Mycobacterium tuberculosis H37Rv. (Polarisation of emitted light reports the rotation of a fluorescent probe.)

Assay [19] addresses T2, Probable nicotinate-nucleotide adenylyltransferase (Staphylococcus aureus (strain N315), UniProt P65502). It is filed as functional, Staphylococcus aureus subsp. aureus N315. The following applies: read-out: IC50_Mean.
For assay [20], the target named is T2, Probable nicotinate-nucleotide adenylyltransferase. It is filed as functional, Staphylococcus aureus subsp. aureus N315.
For assay [21], the target named is Photoreceptor-specific nuclear receptor (Homo sapiens, UniProt Q9Y5X4). It is filed as functional, cell-based.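 Also: CHO-S cells with Gal4-NCOR and VP16-NR2E3 two-hybrid luciferase reporter.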
Sequence of Photoreceptor-specific nuclear receptor (Q9Y5X4 whole entry, the tested form may be a part): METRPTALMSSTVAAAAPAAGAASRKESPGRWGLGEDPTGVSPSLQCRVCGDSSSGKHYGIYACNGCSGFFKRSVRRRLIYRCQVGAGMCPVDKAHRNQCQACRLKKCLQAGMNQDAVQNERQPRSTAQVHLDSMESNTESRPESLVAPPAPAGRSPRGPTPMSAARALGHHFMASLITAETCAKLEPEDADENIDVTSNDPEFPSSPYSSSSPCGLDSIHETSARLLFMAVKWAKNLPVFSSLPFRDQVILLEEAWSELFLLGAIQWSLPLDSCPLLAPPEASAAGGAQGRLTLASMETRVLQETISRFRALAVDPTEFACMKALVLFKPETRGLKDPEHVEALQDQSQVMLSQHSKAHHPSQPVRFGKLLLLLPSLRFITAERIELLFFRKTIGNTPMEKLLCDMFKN
Assay [22] is described as follows: Counterscreen for […] of the human trace amine associated receptor 1 (TAAR1): Fluorescence-based cell-based high throughput dose response assay to identify nonselective Ga16 agonists. It is filed as functional.
Assay [23] can be described thus: Counterscreen for antagonists of the human trace amine associated receptor 1 (hTAAR1): Fluorescence-based cell-based high throughput dose response assay to identify nonselective Ga16 antagonists. It is filed as functional.
The target in assay [24] is T3, Beta-2 adrenergic receptor (Homo sapiens, UniProt P07550). The assay is described as follows: Dose response for HTS for Beta-2AR agonists via FAP method from Powderset1. It is filed as functional.
T3 sequence (P07550 whole entry): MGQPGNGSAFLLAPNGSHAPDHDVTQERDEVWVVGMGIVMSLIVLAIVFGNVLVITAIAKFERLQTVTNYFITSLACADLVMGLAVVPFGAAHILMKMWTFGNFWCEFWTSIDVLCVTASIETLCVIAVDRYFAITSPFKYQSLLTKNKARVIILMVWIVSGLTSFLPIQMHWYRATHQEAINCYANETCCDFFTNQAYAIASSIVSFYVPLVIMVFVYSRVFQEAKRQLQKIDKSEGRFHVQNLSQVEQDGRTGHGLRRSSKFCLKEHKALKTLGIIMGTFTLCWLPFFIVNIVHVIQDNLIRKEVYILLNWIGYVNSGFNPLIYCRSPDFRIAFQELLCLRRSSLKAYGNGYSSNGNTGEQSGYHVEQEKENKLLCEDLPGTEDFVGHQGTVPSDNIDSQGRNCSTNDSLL
Assay [25] addresses T3, Beta-2 adrenergic receptor. The assay is described as follows: beta2AR agonists driving receptor internalization, dose response, cell-based, FAP fluorogen, flow cytometry, cherry pick 1 (AID 588763). It is filed as functional.
Assay [26] addresses SUMO-activating enzyme (Homo sapiens, UniProt Q9UBT2). As to the kind of experiment: SUMOylation inhibitor hit validation, confirmation, SUMOylation inhibitor project, biochemical, AlphaScreen (AID 2018). It is filed as functional.
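For IC50 Mean in this document: confirmatory dose-response retesting of NadD inhibitor hits first found in an ultra-high-throughput screen.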

T2 sequence (P65502 whole entry): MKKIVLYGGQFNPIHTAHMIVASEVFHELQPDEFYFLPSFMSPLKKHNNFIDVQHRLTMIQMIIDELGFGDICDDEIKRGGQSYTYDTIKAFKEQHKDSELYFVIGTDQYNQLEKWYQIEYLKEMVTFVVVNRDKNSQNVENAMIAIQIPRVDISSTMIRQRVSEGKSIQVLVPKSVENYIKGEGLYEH
Sequence of 5-hydroxytryptamine receptor 2A (P35363 whole entry): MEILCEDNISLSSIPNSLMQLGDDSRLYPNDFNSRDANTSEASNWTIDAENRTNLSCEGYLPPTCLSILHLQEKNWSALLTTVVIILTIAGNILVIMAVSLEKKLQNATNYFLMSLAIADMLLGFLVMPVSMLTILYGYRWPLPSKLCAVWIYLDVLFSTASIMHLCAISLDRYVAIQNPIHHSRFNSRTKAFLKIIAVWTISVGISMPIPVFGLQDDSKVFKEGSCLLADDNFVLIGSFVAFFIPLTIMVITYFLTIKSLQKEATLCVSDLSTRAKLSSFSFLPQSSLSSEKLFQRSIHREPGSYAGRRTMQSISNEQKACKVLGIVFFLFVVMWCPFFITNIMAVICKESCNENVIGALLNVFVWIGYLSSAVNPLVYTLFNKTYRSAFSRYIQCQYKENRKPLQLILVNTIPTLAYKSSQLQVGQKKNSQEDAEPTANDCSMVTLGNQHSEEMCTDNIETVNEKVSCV
Sequence of Nuclear receptor subfamily 5 group A member 2 (O00482 whole entry): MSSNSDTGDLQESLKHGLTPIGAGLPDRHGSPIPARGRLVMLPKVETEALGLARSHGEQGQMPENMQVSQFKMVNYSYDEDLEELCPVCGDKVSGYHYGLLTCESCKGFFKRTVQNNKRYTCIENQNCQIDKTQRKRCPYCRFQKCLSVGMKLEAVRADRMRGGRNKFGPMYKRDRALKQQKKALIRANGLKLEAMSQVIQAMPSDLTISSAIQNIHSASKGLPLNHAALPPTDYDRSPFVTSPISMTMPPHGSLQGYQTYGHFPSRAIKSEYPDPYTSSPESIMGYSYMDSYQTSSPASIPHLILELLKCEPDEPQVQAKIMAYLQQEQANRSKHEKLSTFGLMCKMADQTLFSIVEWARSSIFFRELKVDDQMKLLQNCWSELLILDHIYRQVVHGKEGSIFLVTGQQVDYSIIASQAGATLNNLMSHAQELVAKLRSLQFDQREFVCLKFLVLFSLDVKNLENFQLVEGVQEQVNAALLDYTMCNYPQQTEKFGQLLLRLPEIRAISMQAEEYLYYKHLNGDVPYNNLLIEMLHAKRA
Sequence of Mu-type opioid receptor (P35372 whole entry, the tested form may be a part): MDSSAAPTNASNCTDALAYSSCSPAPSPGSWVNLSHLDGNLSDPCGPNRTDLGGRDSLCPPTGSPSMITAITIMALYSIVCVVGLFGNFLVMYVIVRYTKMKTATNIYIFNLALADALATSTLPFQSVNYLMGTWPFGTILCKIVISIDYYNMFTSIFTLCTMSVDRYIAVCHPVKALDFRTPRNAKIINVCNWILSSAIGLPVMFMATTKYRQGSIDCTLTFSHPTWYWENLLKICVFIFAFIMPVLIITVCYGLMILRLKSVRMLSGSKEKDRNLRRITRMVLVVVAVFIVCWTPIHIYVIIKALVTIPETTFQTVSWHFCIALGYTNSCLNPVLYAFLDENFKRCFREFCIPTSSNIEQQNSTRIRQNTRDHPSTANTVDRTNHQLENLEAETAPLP
Sequence of Long-chain-fatty-acid--AMP ligase FadD28 (P9WQ59 whole entry): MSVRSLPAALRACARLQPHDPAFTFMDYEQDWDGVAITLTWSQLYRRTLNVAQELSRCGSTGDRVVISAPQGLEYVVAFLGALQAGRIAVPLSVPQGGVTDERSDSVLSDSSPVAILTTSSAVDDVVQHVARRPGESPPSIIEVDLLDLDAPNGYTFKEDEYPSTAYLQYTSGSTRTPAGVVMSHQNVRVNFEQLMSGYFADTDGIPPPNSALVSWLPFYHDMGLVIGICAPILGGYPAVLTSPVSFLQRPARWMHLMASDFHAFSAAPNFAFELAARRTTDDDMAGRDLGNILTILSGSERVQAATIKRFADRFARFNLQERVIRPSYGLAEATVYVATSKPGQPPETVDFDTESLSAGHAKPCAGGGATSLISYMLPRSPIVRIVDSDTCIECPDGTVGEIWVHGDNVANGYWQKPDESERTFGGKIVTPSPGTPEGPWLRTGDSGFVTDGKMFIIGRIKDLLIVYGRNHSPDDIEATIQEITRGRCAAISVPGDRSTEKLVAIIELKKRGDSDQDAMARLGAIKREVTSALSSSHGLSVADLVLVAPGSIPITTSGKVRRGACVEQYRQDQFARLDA
Sequence of SUMO-activating enzyme (Q9UBE0 whole entry): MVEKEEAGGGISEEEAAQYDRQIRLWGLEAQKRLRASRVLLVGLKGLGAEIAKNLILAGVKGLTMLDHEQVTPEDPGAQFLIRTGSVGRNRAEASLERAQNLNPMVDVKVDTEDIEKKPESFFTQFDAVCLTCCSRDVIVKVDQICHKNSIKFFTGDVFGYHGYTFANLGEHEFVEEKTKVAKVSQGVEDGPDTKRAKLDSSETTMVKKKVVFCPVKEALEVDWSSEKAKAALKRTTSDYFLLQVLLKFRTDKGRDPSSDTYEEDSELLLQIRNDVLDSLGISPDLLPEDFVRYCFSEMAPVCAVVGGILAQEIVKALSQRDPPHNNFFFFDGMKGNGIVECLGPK
Sequence of SUMO-activating enzyme (Q9UBT2 whole entry): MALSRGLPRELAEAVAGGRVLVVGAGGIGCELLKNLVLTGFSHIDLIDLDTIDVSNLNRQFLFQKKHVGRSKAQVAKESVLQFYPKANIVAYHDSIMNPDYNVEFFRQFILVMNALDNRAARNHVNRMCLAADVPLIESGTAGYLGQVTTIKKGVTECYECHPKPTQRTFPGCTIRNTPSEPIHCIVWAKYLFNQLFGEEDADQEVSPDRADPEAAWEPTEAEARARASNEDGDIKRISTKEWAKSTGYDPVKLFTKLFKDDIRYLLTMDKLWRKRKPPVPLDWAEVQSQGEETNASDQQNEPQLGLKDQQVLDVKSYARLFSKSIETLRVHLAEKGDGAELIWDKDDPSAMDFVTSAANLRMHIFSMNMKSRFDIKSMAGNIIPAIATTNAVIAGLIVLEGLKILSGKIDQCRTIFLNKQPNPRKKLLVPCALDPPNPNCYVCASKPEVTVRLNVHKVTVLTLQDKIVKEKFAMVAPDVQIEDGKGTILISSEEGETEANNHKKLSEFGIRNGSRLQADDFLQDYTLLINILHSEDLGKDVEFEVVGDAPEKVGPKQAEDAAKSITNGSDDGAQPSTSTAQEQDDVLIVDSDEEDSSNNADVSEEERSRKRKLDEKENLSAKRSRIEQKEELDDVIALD

For the compound `O=C(O)C1CC=C(Cl)CC1C(=O)NCC1OCCc2ccccc21` (stereo not given), the EC50 in assay [1] was > 29.9 µM (inactive). Also, in [2], the IC50 was > 29.9 µM (inactive).

On to `O=C(NC1CCCCC1)c1ccc2[nH]c(=O)c(=O)[nH]c2c1`, for which, in assay [3], the IC50 is 2.36 µM (active).

`C1=CC2CC1CC2CN1CCN(c2ccccc2)CC1` (stereo not given): the figures for the EC50 in [4] and in assay [5] were 76.1 µM (inactive) and 92.5 µM (inactive), respectively.

As for `COc1ccccc1NC(=O)CSc1ccc2nnc(-c3cccnc3)n2n1`, the AC50 in [6] was 118 µM (active); in assay [7] it was 127 µM (active).

For `COc1cc(NC(=O)Cn2ccsc2=N)c(C)cc1[N+](=O)[O-]`, the results for the IC50 in assay [8], in assay [9] and in [10] were 25.3 µM (inactive), 35.9 µM (inactive) and 35.9 µM (inactive), respectively.

For the compound `Cc1c(Cl)cccc1-c1ccc(CNCc2ccccn2)o1`, in assay [11], the IC50 is 0.55 µM (active). Moreover, the figures for the EC50 in assay [12], in [13] and in assay [14] were > 150 µM (not active), 70.2 µM (active) and 13 µM (active), respectively. Also, the AC50 in [7] is 87.3 µM (active). For the same compound, the CC50 in assay [15] is > 40 µM (active).

For the compound `Cc1cc(=O)oc2cc(OCCc3ccccc3)ccc12`, the IC50 in assay [3] was 1.35 µM (active). The CC50 is > 25 µM (active) in assay [16] and 35.1 µM (active) in assay [17].

In the case of `Cc1nc2ccccc2n1-c1ccccc1`, in assay [18], the AC50 is 29.5 µM (active).

`O=C(Nc1nnc(-c2cccs2)o1)c1cc(-c2ccccc2)nc2ccccc12`: the IC50 in assay [19] was 27.6 µM (active); in [20], 6.58 µM (active); in assay [21] it was 3.67 µM (active).

As to `CCOCCOc1cccc(C(=O)NC(c2ccccc2)c2ccccc2)c1`, the EC50 in assay [22] is 10.3 µM (inactive). Besides, in [23], the IC50 is 10 µM (inactive).

Regarding `COc1ccc(CN2CCC(Oc3ccc(C(=O)N4CCCC4)cc3)CC2)c(F)c1`, the results for the EC50 in assay [24] and in assay [25] were 5.42 µM (active) and 4.66 µM (active), respectively.

As to `O=C(COc1ccc2c3c(c(=O)oc2c1)CCCC3)NCCN1CCOCC1`, the IC50 was 17 µM (inactive) in [8], 35.8 µM (inactive) in assay [9] and 35.8 µM (inactive) in assay [10].

With `O=C(O)c1ccc(/C=N/NC(=O)c2ccc(CN3c4cccc5cccc(c45)S3(=O)=O)cc2)cc1`, the IC50 in [19] is 27.2 µM (active); in [20], 5.94 µM (active); in assay [26], 10.9 µM (active).

For `CCCN[C@H]1CCc2nc(N)sc2C1`, the 50% effective concentration (EC50) in assay [4] was 0.00651 µM (active); in assay [5], 92.5 µM (inactive).

As a reminder, the EC50 is the concentration needed to bring the measured effect to its halfway point. For orientation: AC50 means the concentration giving half of the maximal activity seen.
